We go through 13 compounds from patent publication US11691971B2, “Naphthyridinone compounds as JAK2 V617F inhibitors” (Incyte Corporation, priority 2020, dated 2023).

Assay [1] addresses pseudo-kinase domain (JH2) of human V617F mutant JAK2 (Homo sapiens (Human), UniProt O60674, F794H/V617F/W659A/W777A). The experiment in a line: JAK2 LanthaScreen JH2-V617F Binding Assay. The conditions noted are these: JAK2 JH2-V617F 0.26 nM, 50 nM tracer, 1 hour at 25° C.; read-out: JH2BINDING_V617F IC50. The method, then:
The assay was conducted in black 384-well polystyrene plates in a final reaction volume of 20 μL. […] Non-specific binding was accessed in the presence of 2 mM ATP. After incubation for 1 hour at 25° C., LanthaScreen signals were read on a PHERAstar FS plate reader (BMG LABTECH). Data was analyzed with IDBS XLfit and GraphPad Prism 5.0 software using a four parameter dose response curve to determine IC50 for each compound.

Assay [2] concerns the target catalytic domain (JH1, amino acids 808-1132) of human JAK2 (Homo sapiens (Human), UniProt O60674). The experiment in a line: JAK2 HTRF Enzyme Activity Assay. The assay is classed as biochemical. The conditions noted are these: ATP 30 μM, 60 minutes at 25° C.; read-out: ENZ 30UMATP IC50. The method, then: Example D. JAK2 HTRF Enzyme Activity Assay
JAK2 enzyme activity assays utilize catalytic domain (JH1, amino acids 808-1132) of human JAK2 expressed as N-terminal His-tagged protein in a baculovirus expression system (BPS Bioscience, Catalog #40450). The assays was conducted in black 384-well polystyrene plates in a final reaction volume of 20 μL. JAK2 (0.015 nM) was incubated with compounds (100 nL serially diluted in DMSO) in the presence of ATP (30 μM or 1 mM) and 500 nM Biotin-labeled […] (SEQ ID NO.: 1) peptide (BioSource International, custom synthesis) in assay buffer (50 mM Tris, pH=7.5, 10 mM MgCl2, 0.01% Brij-35, 0.1% BSA, 1 mM EGTA, 5% Glycerol and 5 mM DTT) for 60 minutes at 25° C. The reactions were stopped by the addition of 10 μL of detection buffer (50 mM Tris, pH 7.8, 0.5 mg/mL BSA, 150 mM NaCl), supplemented with EDTA, LANCE Eu-W1024 anti-phosphotyrosine (PY20), (PerkinElmer, Catalog #AD0067) and Streptavidin SureLight APC (PerkinElmer Catalog #CR130-100), for a final concentration of 15 mM, 1.5 nM and 75 nM, respectively. HTRF signals were read after 30 minutes incubation at room temperature on a PHERAstar FS plate reader (BMG LABTECH). Data was analyzed with IDBS XLfit and GraphPad Prism 5.0 software using a four parameter dose response curve to determine IC50 for each compound.
Background: Time-resolved FRET reads energy transfer from a long-lived donor to a nearby acceptor.

Assay [3] concerns the target pseudo-kinase domain (JH2) of human Wild Type JAK2 (Homo sapiens (Human), UniProt O60674, F794H/W659A/W777A). Put plainly: JAK2 LanthaScreen JH2-WT Binding Assay. The conditions noted are these: JAK2 JH2-WT 0.145 nM, 50 nM tracer, 1 hour at 25° C.; read-out: JH2BIND_WT IC50. The method, then: Example B. JAK2 LanthaScreen JH2-WT Binding Assay
(§1) The assay was conducted in black 384-well polystyrene plates in a final reaction volume of 20 μL. JAK2 JH2-WT (0.145 nM) was incubated with compounds (100 nL serially diluted in DMSO) in the presence of 50 nM Fluorescent JAK2-JH2 Tracer (MedChem Express Catalog #HY-102055) and 0.25 nM Streptavidin-Tb cryptate (Cisbio Part #610SATLB) in assay buffer (50 mM Tris, pH=7.5, 10 mM MgCl2, 0.01% Brij-35, 0.1% BSA, 1 mM EGTA, 5% Glycerol and 5 mM DTT). Non-specific binding was accessed in the presence of 2 mM ATP. After incubation for 1 hour at 25° C., LanthaScreen signals were read on a PHERAstar FS plate reader (BMG LABTECH). Data was analyzed with IDBS XLfit and GraphPad Prism 5.0 software using a four parameter dose response curve to determine IC50 for each compound.

For assay [4], the target named is catalytic domain (JH1, amino acids 826-1132) of human JAK2 (Homo sapiens (Human), UniProt O60674). The experiment in a line: JAK2 LanthaScreen JH1 Binding Assay. Particulars: JAK2 JH1 1.5 nM, 50 nM tracer, 2 hours at 25° C.; read-out: JH1BIND IC50. The method, then: Example A. JAK2 LanthaScreen JH1 Binding Assay
as §1, with “JAK2 JH1 binding assay utilizes catalytic domain (JH1, amino acids 826-1132) of human JAK2 expressed as N-terminal FLAG-tagged, biotinylated protein in a baculovirus expression system (Carna Biosciences, Product #08-445-20N). The” for “The”, “JH1 (1.5” for “JH2-WT (0.145”, “fluorescent JAK2-JH1 tracer” for “Fluorescent JAK2-JH2 Tracer (MedChem Express Catalog #HY-102055)”, “0.5” for “0.25”, “2 hours” for “1 hour”

Each structure is given as a SMILES string. Structures can show the parent of a compound that is named as a salt.

The term IC50 denotes the concentration needed to halve the response being measured.

Chain of pseudo-kinase domain (JH2) of human Wild Type JAK2 (O60674 536-812 W659A/W777A/F794H): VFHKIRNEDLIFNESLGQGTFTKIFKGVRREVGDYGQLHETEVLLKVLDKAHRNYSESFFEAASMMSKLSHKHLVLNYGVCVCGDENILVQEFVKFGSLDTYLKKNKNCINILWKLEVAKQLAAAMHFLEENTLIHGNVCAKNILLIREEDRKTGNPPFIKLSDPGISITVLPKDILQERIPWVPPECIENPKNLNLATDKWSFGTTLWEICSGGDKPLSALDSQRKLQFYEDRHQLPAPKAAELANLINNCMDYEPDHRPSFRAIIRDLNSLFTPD
Chain of catalytic domain (JH1, amino acids 826-1132) of human JAK2 (O60674 826-1132): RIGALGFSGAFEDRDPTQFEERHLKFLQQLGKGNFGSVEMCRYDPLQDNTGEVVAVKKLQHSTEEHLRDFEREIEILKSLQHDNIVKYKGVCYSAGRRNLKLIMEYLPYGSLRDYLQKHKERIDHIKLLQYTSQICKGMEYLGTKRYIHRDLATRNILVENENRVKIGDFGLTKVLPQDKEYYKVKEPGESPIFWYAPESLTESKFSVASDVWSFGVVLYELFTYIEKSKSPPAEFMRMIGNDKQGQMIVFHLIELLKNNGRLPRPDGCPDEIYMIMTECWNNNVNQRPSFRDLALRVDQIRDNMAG
Chain of catalytic domain (JH1, amino acids 808-1132) of human JAK2 (O60674 808-1132): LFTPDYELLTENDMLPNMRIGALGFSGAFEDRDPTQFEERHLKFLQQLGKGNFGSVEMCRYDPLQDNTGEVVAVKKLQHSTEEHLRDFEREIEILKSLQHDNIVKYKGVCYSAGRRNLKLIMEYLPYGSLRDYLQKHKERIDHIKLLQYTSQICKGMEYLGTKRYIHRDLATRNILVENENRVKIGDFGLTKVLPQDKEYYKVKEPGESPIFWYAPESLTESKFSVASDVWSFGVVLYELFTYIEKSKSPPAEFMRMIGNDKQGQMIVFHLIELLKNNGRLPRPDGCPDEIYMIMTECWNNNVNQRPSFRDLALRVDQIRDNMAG
Chain of pseudo-kinase domain (JH2) of human V617F mutant JAK2 (O60674 536-812 V617F/W659A/W777A/F794H): as the sequence (O60674 536-812 W659A/W777A/F794H) above, with V82F counted along it

Take `CCn1ccc2cccc(Nc3cc(NC(=O)C4CC4)nc4cc[nH]c(=O)c34)c21` [Example 9, N-(4-((1-Ethyl-1H-indol-7-yl)amino)-5-oxo-5,6-dihydro-1,6-naphthyridin-2-yl)cyclopropanecarboxamide Trifluoroacetic Acid Salt]: the 50% inhibitory concentration (IC50) in assay [1] is 1 to 10 µM; in assay [2] it was greater than 10 µM; in assay [3], 1 to 10 µM; in assay [4], greater than 10 µM.
As to `COc1c(Nc2cc(NC(=O)C3CC3)nc3cc[nH]c(=O)c23)cccc1-c1cn[nH]c1` [Example 1, N-(4-((2-Methoxy-3-(1H-pyrazol-4-yl)phenyl)amino)-5-oxo-5,6-dihydro-1,6-naphthyridin-2-yl)cyclopropanecarboxamide], the IC50 in assay [1] was 0.1 to 0.5 µM; in assay [2], 1 to 10 µM; in assay [3], no more than 0.1 µM; in assay [4], 1 to 10 µM.
With `COc1c(Nc2cc(NC(=O)C3CC3)nc3cc[nH]c(=O)c23)cccc1C(F)(F)F` [Example 14, N-(4-((2-Methoxy-3-(trifluoromethyl)phenyl)amino)-5-oxo-5,6-dihydro-1,6-naphthyridin-2-yl)cyclopropanecarboxamide Trifluoroacetic Acid Salt], the half-inhibitory concentration (IC50) in assay [1] was 0.1 to 0.5 µM; in assay [2], greater than 10 µM; in assay [3], 0.1 to 0.5 µM; in assay [4] it was greater than 10 µM.
As for `COc1c(Nc2cc(NC(=O)C3CC3)nc3cc[nH]c(=O)c23)cccc1-c1cnn(C(C)C(N)=O)c1` (stereo not shown) [Example 8, N-(4-((3-(1-(1-Amino-1-oxopropan-2-yl)-1H-pyrazol-4-yl)-2-methoxyphenyl)amino)-5-oxo-5,6-dihydro-1,6-naphthyridin-2-yl)cyclopropanecarboxamide Trifluoroacetic Acid Salt], the 50% inhibitory concentration (IC50) in assay [1] is no more than 0.1 µM; in assay [2] it was 0.1 to 0.5 µM; in assay [3] it was no more than 0.1 µM; in assay [4] it was 1 to 10 µM.
Take `O=C(Nc1cc(Nc2cccc(C(F)(F)F)c2-c2cn[nH]c2)c2c(=O)[nH]ccc2n1)C1CC1` [Example 18, N-(4-((2-(1H-pyrazol-4-yl)-3-(trifluoromethyl)phenyl)amino)-5-oxo-5,6-dihydro-1,6-naphthyridin-2-yl)cyclopropanecarboxamide Trifluoroacetic Acid Salt]: the IC50 in assay [1] is 0.5 to 1 µM; in assay [2], greater than 10 µM; in assay [3], 0.5 to 1 µM; in assay [4], greater than 10 µM.
Take `COc1c(Nc2cc(NC(=O)C3CC3)nc3cc[nH]c(=O)c23)cccc1-c1cnn(C2CCCC2)c1` [Example 3, N-(4-((3-(1-Cyclopentyl-1H-pyrazol-4-yl)-2-methoxyphenyl)amino)-5-oxo-5,6-dihydro-1,6-naphthyridin-2-yl)cyclopropanecarboxamide Trifluoroacetic Acid Salt]: the 50% inhibitory concentration (IC50) in assay [1] was 0.1 to 0.5 µM; in assay [2], greater than 10 µM; in assay [3], 0.1 to 0.5 µM; in assay [4] it was greater than 10 µM.
Regarding `O=C(Nc1cc(Nc2ccccc2OC(F)F)c2c(=O)[nH]ccc2n1)C1CC1` [Example 20, N-(4-((2-(Difluoromethoxy)phenyl)amino)-5-oxo-5,6-dihydro-1,6-naphthyridin-2-yl)cyclopropanecarboxamide Trifluoroacetic Acid Salt], the concentration for half-maximal inhibition (IC50) in assay [1], in assay [2], in assay [3] and in assay [4] was 1 to 10 µM throughout.
`O=C(Nc1cc(Nc2ccccc2OC2CC2)c2c(=O)[nH]ccc2n1)C1CC1` [Example 24, N-(4-((2-Cyclopropoxyphenyl)amino)-5-oxo-5,6-dihydro-1,6-naphthyridin-2-yl)cyclopropanecarboxamide Trifluoroacetic Acid Salt]: the concentration for half-maximal inhibition (IC50) in assay [1] is 1 to 10 µM; in assay [2], 0.5 to 1 µM; in assay [3], 1 to 10 µM; in assay [4], 1 to 10 µM.
Consider `O=C(Nc1cc(Nc2cccc(Cl)c2-c2cn[nH]c2)c2c(=O)[nH]ccc2n1)C1CC1` [Example 16, N-(4-((3-Chloro-2-(1H-pyrazol-4-yl)phenyl)amino)-5-oxo-5,6-dihydro-1,6-naphthyridin-2-yl)cyclopropanecarboxamide Trifluoroacetic Acid Salt], for which the 50% inhibitory concentration (IC50) in assay [1] was in the range of 0.5 to 1 µM; in assay [2], 1 to 10 µM; in assay [3], 0.5 to 1 µM; in assay [4], 1 to 10 µM.
`CNc1ccccc1Nc1cc(NC(=O)C2CC2)nc2cc[nH]c(=O)c12` [Example 22, N-(4-((2-(Methylamino)phenyl)amino)-5-oxo-5,6-dihydro-1,6-naphthyridin-2-yl)cyclopropanecarboxamide Trifluoroacetic Acid Salt]: the IC50 in assay [1], in assay [2], in assay [3] and in assay [4] was greater than 10 µM in each case.
Take `COc1c(Nc2cc(NC(=O)C3CC3)nc3cc[nH]c(=O)c23)cccc1-c1cnc(C2CCOCC2)s1` [Example 2, N-(4-((2-Methoxy-3-(2-(tetrahydro-2H-pyran-4-yl)thiazol-5-yl)phenyl)amino)-5-oxo-5,6-dihydro-1,6-naphthyridin-2-yl)cyclopropanecarboxamide Trifluoroacetic Acid Salt]: the half-inhibitory concentration (IC50) in assay [1] is no more than 0.1 µM; in assay [2], greater than 10 µM; in assay [3], no more than 0.1 µM; in assay [4], greater than 10 µM.
As to `COc1c(Nc2cc(NC(=O)C3CC3)nc3ccn(C)c(=O)c23)cccc1-c1cnc(C2CCOCC2)s1` [Example 10, N-(4-((2-Methoxy-3-(2-(tetrahydro-2H-pyran-4-yl)thiazol-5-yl)phenyl)amino)-6-methyl-5-oxo-5,6-dihydro-1,6-naphthyridin-2-yl)cyclopropanecarboxamide Trifluoroacetic Acid Salt], the IC50 in assay [1] was 1 to 10 µM; in assay [2], greater than 10 µM; in assay [3] it was 1 to 10 µM; in assay [4] it was greater than 10 µM.
With `O=C(Nc1cc(Nc2cccc(-c3cnn(C4CCOCC4)c3)c2)c2c(=O)[nH]ccc2n1)C1CC1` [Example 6, N-(5-oxo-4-((3-(1-(tetrahydro-2H-pyran-4-yl)-1H-pyrazol-4-yl)phenyl)amino)-5,6-dihydro-1,6-naphthyridin-2-yl)cyclopropanecarboxamide Trifluoroacetic Acid Salt], the IC50 in assay [1] is greater than 10 µM; in assay [2], 1 to 10 µM; in assay [3] it was greater than 10 µM; in assay [4], 1 to 10 µM.
